Results as given in ChEMBL document CHEMBL3352542, “Synthesis, biological evaluation and molecular modeling study of 2-(1,3,4-thiadiazolyl-thio and 4-methyl-thiazolyl-thio)-quinazolin-4-ones as a new class of DHFR inhibitors” (Bioorg Med Chem Lett, 2014).
Calls of active or inactive are those of the source. The rule behind the calls is not given here.

Legend:
Dihydrofolate reductase = molecular target: T1, Dihydrofolate reductase (Bos taurus, UniProt P00376); test: Inhibition of bovine liver DHFR
T1 sequence (P00376 whole entry): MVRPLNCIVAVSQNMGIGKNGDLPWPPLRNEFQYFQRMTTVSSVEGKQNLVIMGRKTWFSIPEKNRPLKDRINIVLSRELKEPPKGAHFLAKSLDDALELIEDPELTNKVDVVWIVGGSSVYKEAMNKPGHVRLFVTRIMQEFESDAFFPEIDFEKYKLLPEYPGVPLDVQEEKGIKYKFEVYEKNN

Staphylococcus aureus = test: Antimicrobial activity against Staphylococcus aureus assessed as inhibition zone at 200 ug/disk after 24 hrs by disc-diffusion method; assay type: functional; settings: read-out: IZ
Bacillus subtilis = test: Antimicrobial activity against Bacillus subtilis assessed as inhibition zone at 200 ug/disk after 24 hrs by disc-diffusion method; assay type: functional; settings: read-out: IZ
Escherichia coli = test: Antimicrobial activity against Escherichia coli assessed as inhibition zone at 200 ug/disk after 24 hrs by disc-diffusion method; assay type: functional; settings: read-out: IZ
Pseudomonas aeruginosa = test: Antimicrobial activity against Pseudomonas aeruginosa assessed as inhibition zone at 200 ug/disk after 24 hrs by disc-diffusion method; assay type: functional; settings: read-out: IZ
Candida albicans = test: Antimicrobial activity against Candida albicans assessed as inhibition zone at 200 ug/disk after 24 hrs by disc-diffusion method; assay type: functional; settings: read-out: IZ
CCRF-CEM = test: Growth inhibition of human CCRF-CEM cells at 10 uM after 48 hrs; assay type: functional
HL-60(TB) = test: Growth inhibition of human HL-60(TB) cells at 10 uM after 48 hrs; assay type: functional
K562 = test: Growth inhibition of human K562 cells at 10 uM after 48 hrs; assay type: functional
MOLT-4 = test: Growth inhibition of human MOLT4 cells at 10 uM after 48 hrs; assay type: functional
RPMI-8226 = test: Growth inhibition of human RPMI8226 cells at 10 uM after 48 hrs; assay type: functional
SR = test: Growth inhibition of human SR cells at 10 uM after 48 hrs; assay type: functional
A549 = test: Growth inhibition of human A549 cells at 10 uM after 48 hrs; assay type: functional
HOP-92 = test: Growth inhibition of human HOP92 cells at 10 uM after 48 hrs; assay type: functional
NCI-H226 = test: Growth inhibition of human NCI-H226 cells at 10 uM after 48 hrs; assay type: functional
NCI-H23 = test: Growth inhibition of human NCI-H23 cells at 10 uM after 48 hrs; assay type: functional
NCI-H460 = test: Growth inhibition of human NCI-H460 cells at 10 uM after 48 hrs; assay type: functional
NCI-H522 = test: Growth inhibition of human NCI-H522 cells at 10 uM after 48 hrs; assay type: functional
COLO 205 = test: Growth inhibition of human COLO205 cells at 10 uM after 48 hrs; assay type: functional
HCC 2998 = test: Growth inhibition of human HCC2998 cells at 10 uM after 48 hrs; assay type: functional
HCT-116 = test: Growth inhibition of human HCT116 cells at 10 uM after 48 hrs; assay type: functional
HCT-15 = test: Growth inhibition of human HCT15 cells at 10 uM after 48 hrs; assay type: functional
HT-29 = test: Growth inhibition of human HT-29 cells at 10 uM after 48 hrs; assay type: functional
KM12 = test: Growth inhibition of human KM12 cells at 10 uM after 48 hrs; assay type: functional
SW-620 = test: Growth inhibition of human SW620 cells at 10 uM after 48 hrs; assay type: functional
SF-268 = test: Growth inhibition of human SF268 cells at 10 uM after 48 hrs; assay type: functional
SF-295 = test: Growth inhibition of human SF295 cells at 10 uM after 48 hrs; assay type: functional
SF-539 = test: Growth inhibition of human SF539 cells at 10 uM after 48 hrs; assay type: functional
SNB-19 = test: Growth inhibition of human SNB19 cells at 10 uM after 48 hrs; assay type: functional
SNB-75 = test: Growth inhibition of human SNB75 cells at 10 uM after 48 hrs; assay type: functional
U-251 = test: Growth inhibition of human U251 cells at 10 uM after 48 hrs; assay type: functional
LOX IMVI = test: Growth inhibition of human LOXIMVI cells at 10 uM after 48 hrs; assay type: functional
Malme-3M = test: Growth inhibition of human MALME-3M cells at 10 uM after 48 hrs; assay type: functional
M14 = test: Growth inhibition of human M14 cells at 10 uM after 48 hrs; assay type: functional
MDA-MB-435 = test: Growth inhibition of human MDA-MB-435 cells at 10 uM after 48 hrs; assay type: functional
SK-MEL-5 = test: Growth inhibition of human SK-MEL-5 cells at 10 uM after 48 hrs; assay type: functional
UACC-257 = test: Growth inhibition of human UACC257 cells at 10 uM after 48 hrs; assay type: functional
UACC-62 = test: Growth inhibition of human UACC62 cells at 10 uM after 48 hrs; assay type: functional
OVCAR-3 = test: Growth inhibition of human OVCAR3 cells at 10 uM after 48 hrs; assay type: functional
OVCAR-4 = test: Growth inhibition of human OVCAR4 cells at 10 uM after 48 hrs; assay type: functional
OVCAR-5 = test: Growth inhibition of human OVCAR5 cells at 10 uM after 48 hrs; assay type: functional
OVCAR-8 = test: Growth inhibition of human OVCAR8 cells at 10 uM after 48 hrs; assay type: functional
NCI/ADR-RES = test: Growth inhibition of human NCI-ADR-RES cells at 10 uM after 48 hrs; assay type: functional
786-0 = test: Growth inhibition of human 786-0 cells at 10 uM after 48 hrs; assay type: functional
A498 = test: Growth inhibition of human A498 cells at 10 uM after 48 hrs; assay type: functional
ACHN = test: Growth inhibition of human ACHN cells at 10 uM after 48 hrs; assay type: functional
CAKI-1 = test: Growth inhibition of human CAKI-1 cells at 10 uM after 48 hrs; assay type: functional
RXF 393 = test: Growth inhibition of human RXF393 cells at 10 uM after 48 hrs; assay type: functional
SN12C = test: Growth inhibition of human SN12C cells at 10 uM after 48 hrs; assay type: functional
TK-10 = test: Growth inhibition of human TK10 cells at 10 uM after 48 hrs; assay type: functional
UO-31 = test: Growth inhibition of human UO31 cells at 10 uM after 48 hrs; assay type: functional
PC-3 = test: Growth inhibition of human PC3 cells at 10 uM after 48 hrs; assay type: functional
MCF7 = test: Growth inhibition of human MCF7 cells at 10 uM after 48 hrs; assay type: functional
MDA-MB-231 = test: Growth inhibition of human MDA-MB-231 cells at 10 uM after 48 hrs; assay type: functional
Hs-578T = test: Growth inhibition of human Hs 578T cells at 10 uM after 48 hrs; assay type: functional
BT-549 = test: Growth inhibition of human BT549 cells at 10 uM after 48 hrs; assay type: functional
T47D = test: Growth inhibition of human T47D cells at 10 uM after 48 hrs; assay type: functional
MDA-MB-468 = test: Growth inhibition of human MDA-MB-468 cells at 10 uM after 48 hrs; assay type: functional

Cc1ccc2nc(Sc3sc(N)nc3C)n(-c3ccccc3)c(=O)c2c1
IC50 (Dihydrofolate reductase): 5 µM | zone of inhibition at 200 µg/disc (Staphylococcus aureus): 8 mm | zone of inhibition at 200 µg/disc (Bacillus subtilis): 8 mm | zone of inhibition at 200 µg/disc (Escherichia coli): 8 mm | zone of inhibition at 200 µg/disc (Pseudomonas aeruginosa): 8 mm | zone of inhibition at 200 µg/disc (Candida albicans): 8 mm | growth inhibition (GI) (CCRF-CEM): inactive | growth inhibition (GI) (HL-60(TB)): inactive | growth inhibition (GI) (K562): inactive | growth inhibition (GI) (MOLT-4): inactive | growth inhibition (GI) (RPMI-8226): inactive | growth inhibition (GI) (SR): inactive | growth inhibition (GI) (A549): inactive | growth inhibition (GI) (HOP-92): inactive | growth inhibition (GI) (NCI-H226): inactive | growth inhibition (GI) (NCI-H23): inactive | growth inhibition (GI) (NCI-H460): inactive | growth inhibition (GI) (NCI-H522): inactive | growth inhibition (GI) (COLO 205): inactive | growth inhibition (GI) (HCC 2998): inactive | growth inhibition (GI) (HCT-116): inactive | growth inhibition (GI) (HCT-15): inactive | growth inhibition (GI) (HT-29): inactive | growth inhibition (GI) (KM12): inactive | growth inhibition (GI) (SW-620): inactive | growth inhibition (GI) (SF-268): inactive | growth inhibition (GI) (SF-295): inactive | growth inhibition (GI) (SF-539): inactive | growth inhibition (GI) (SNB-19): inactive | growth inhibition (GI) (SNB-75): inactive | growth inhibition (GI) (U-251): inactive | growth inhibition (GI) (LOX IMVI): inactive | growth inhibition (GI) (Malme-3M): inactive | growth inhibition (GI) (M14): inactive | growth inhibition (GI) (MDA-MB-435): inactive | growth inhibition (GI) (SK-MEL-5): inactive | growth inhibition (GI) (UACC-257): inactive | growth inhibition (GI) (UACC-62): inactive | growth inhibition (GI) (OVCAR-3): inactive | growth inhibition (GI) (OVCAR-4): inactive | growth inhibition (GI) (OVCAR-5): inactive | growth inhibition (GI) (OVCAR-8): inactive | growth inhibition (GI) (NCI/ADR-RES): inactive | growth inhibition (GI) (786-0): inactive | growth inhibition (GI) (A498): inactive | growth inhibition (GI) (ACHN): inactive | growth inhibition (GI) (CAKI-1): inactive | growth inhibition (GI) (RXF 393): inactive | growth inhibition (GI) (SN12C): inactive | growth inhibition (GI) (TK-10): inactive | growth inhibition (GI) (UO-31): inactive | growth inhibition (GI) (PC-3): inactive | growth inhibition (GI) (MCF7): inactive | growth inhibition (GI) (MDA-MB-231): inactive | growth inhibition (GI) (Hs-578T): inactive | growth inhibition (GI) (BT-549): inactive | growth inhibition (GI) (T47D): inactive | growth inhibition (GI) (MDA-MB-468): inactive

Cc1ccc(-n2c(Sc3sc(N)nc3C)nc3ccc(C)cc3c2=O)cc1
IC50 (Dihydrofolate reductase): 7 µM | zone of inhibition at 200 µg/disc (Staphylococcus aureus): 8 mm | zone of inhibition at 200 µg/disc (Bacillus subtilis): 8 mm | zone of inhibition at 200 µg/disc (Escherichia coli): 8 mm | zone of inhibition at 200 µg/disc (Pseudomonas aeruginosa): 8 mm | zone of inhibition at 200 µg/disc (Candida albicans): 8 mm | growth inhibition (GI) (CCRF-CEM): inactive | growth inhibition (GI) (HL-60(TB)): inactive | growth inhibition (GI) (K562): inactive | growth inhibition (GI) (MOLT-4): inactive | growth inhibition (GI) (RPMI-8226): inactive | growth inhibition (GI) (SR): inactive | growth inhibition (GI) (A549): inactive | growth inhibition (GI) (HOP-92): inactive | growth inhibition (GI) (NCI-H226): inactive | growth inhibition (GI) (NCI-H23): inactive | growth inhibition (GI) (NCI-H460): inactive | growth inhibition (GI) (NCI-H522): inactive | growth inhibition (GI) (COLO 205): inactive | growth inhibition (GI) (HCC 2998): inactive | growth inhibition (GI) (HCT-116): inactive | growth inhibition (GI) (HCT-15): inactive | growth inhibition (GI) (HT-29): inactive | growth inhibition (GI) (KM12): inactive | growth inhibition (GI) (SW-620): inactive | growth inhibition (GI) (SF-268): inactive | growth inhibition (GI) (SF-295): inactive | growth inhibition (GI) (SF-539): inactive | growth inhibition (GI) (SNB-19): inactive | growth inhibition (GI) (SNB-75): inactive | growth inhibition (GI) (U-251): inactive | growth inhibition (GI) (LOX IMVI): inactive | growth inhibition (GI) (Malme-3M): inactive | growth inhibition (GI) (M14): inactive | growth inhibition (GI) (MDA-MB-435): inactive | growth inhibition (GI) (SK-MEL-5): inactive | growth inhibition (GI) (UACC-257): inactive | growth inhibition (GI) (UACC-62): inactive | growth inhibition (GI) (OVCAR-3): inactive | growth inhibition (GI) (OVCAR-4): inactive | growth inhibition (GI) (OVCAR-5): inactive | growth inhibition (GI) (OVCAR-8): inactive | growth inhibition (GI) (NCI/ADR-RES): inactive | growth inhibition (GI) (786-0): inactive | growth inhibition (GI) (A498): inactive | growth inhibition (GI) (ACHN): inactive | growth inhibition (GI) (CAKI-1): inactive | growth inhibition (GI) (RXF 393): inactive | growth inhibition (GI) (SN12C): inactive | growth inhibition (GI) (TK-10): inactive | growth inhibition (GI) (UO-31): inactive | growth inhibition (GI) (PC-3): inactive | growth inhibition (GI) (MCF7): inactive | growth inhibition (GI) (MDA-MB-231): inactive | growth inhibition (GI) (Hs-578T): inactive | growth inhibition (GI) (BT-549): inactive | growth inhibition (GI) (T47D): inactive | growth inhibition (GI) (MDA-MB-468): inactive
